Key:
Histone deacetylase 1 = Histone deacetylase 1 (Homo sapiens, UniProt Q13547); assay: Inhibition of HDAC1 (unknown origin)
A549 [1] = assay: cells; details: Homo sapiens, A549, 72 h
Description: Cytotoxicity against human A549 cells after 72 hrs by MTT assay

MCF7 [2] = assay: cells; details: Homo sapiens, MCF7, 72 h
Description: Cytotoxicity against human MCF7 cells after 72 hrs by MTT assay

HCT-116 = assay: cells; details: Homo sapiens, HCT-116, 72 h
[3] = Tmax in Sprague-Dawley rat at 25 mg/kg, po; assay type: ADME, organism-based; parameters: dose 25 mg/kg, route oral; details: in vivo
[4] = Oral bioavailability in Sprague-Dawley rat at 25 mg/kg; assay type: ADME, organism-based; details: in vivo
[5] = AUC infinity in Sprague-Dawley rat at 25 mg/kg, po; assay type: ADME, organism-based; parameters: time infinity, dose 25 mg/kg, route oral; details: plasma
[6] = Terminal half life in Sprague-Dawley rat at 25 mg/kg, po; assay type: ADME, organism-based; parameters: dose 25 mg/kg, route oral; details: in vivo, read-out: beta t1/2 (converted)
[7] = Terminal half life in Sprague-Dawley rat at 5 mg/kg, iv; assay type: ADME, organism-based; parameters: dose 5 mg/kg, route intravenous; details: in vivo, read-out: beta t1/2 (converted)
A549 [8] = assay: Ratio of MGCD0103 IC50 to compound IC50 for human A549 cells; assay type: functional
MCF7 [9] = assay: Ratio of MGCD0103 IC50 to compound IC50 for human MCF7 cells; assay type: functional
[10] = AUClast in Sprague-Dawley rat at 25 mg/kg, po; details: plasma

Chain of Histone deacetylase 1 (Q13547 whole entry): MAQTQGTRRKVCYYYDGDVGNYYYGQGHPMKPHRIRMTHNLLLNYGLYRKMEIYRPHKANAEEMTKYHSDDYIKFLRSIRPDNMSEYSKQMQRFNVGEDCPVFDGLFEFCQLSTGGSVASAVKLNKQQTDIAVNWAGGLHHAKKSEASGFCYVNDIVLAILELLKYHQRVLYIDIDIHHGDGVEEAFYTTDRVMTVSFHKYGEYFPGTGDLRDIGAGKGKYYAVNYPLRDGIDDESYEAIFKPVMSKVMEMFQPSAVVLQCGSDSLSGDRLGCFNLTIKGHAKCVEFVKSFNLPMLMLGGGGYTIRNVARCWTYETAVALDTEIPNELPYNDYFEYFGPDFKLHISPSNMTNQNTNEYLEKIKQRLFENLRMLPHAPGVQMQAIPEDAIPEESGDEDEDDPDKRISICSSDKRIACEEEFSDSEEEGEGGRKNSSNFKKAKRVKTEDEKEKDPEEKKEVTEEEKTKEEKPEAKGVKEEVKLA

Row | Structure (SMILES) | IC50 (Histone deacetylase 1) [nM] | IC50 (A549 [1]) [nM] | IC50 (MCF7 [2]) [nM] | IC50 (HCT-116) [nM] | Tmax [3] [min] | bioavailability [4] [%] | AUC(0-inf) [5] [ng·h/mL] | half-life [6] [h] | half-life [7] [h] | Ratio IC50 (A549 [8]) | Ratio IC50 (MCF7 [9]) | AUC(0-t) [10] [ng·h/mL]
1 | Nc1ccccc1NC(=O)c1ccc(CNc2nccc(-c3cnc4cnccn34)n2)cc1 | 110 | 509 | 2180 | 214 |  |  |  |  |  |  |  | 
2 | Cc1nc2ccccn2c1-c1ccnc(NCc2ccc(C(=O)Nc3ccccc3N)cc2)n1 | 108 | 439 | 2090 | 203 |  |  |  |  |  |  |  | 
3 | Cc1nc2ncccn2c1-c1ccnc(NCc2ccc(C(=O)Nc3ccccc3N)cc2)n1 | 127 | 857 | 4110 | 189 |  |  |  |  |  |  |  | 
4 | Cc1nc2cnccn2c1-c1ccnc(NCc2ccc(C(=O)Nc3ccccc3N)cc2)n1 | 97 | 694 | 3740 | 264 |  |  |  |  |  |  |  | 
5 | Cc1nc2ccccn2c1-c1ccnc(NCCc2ccc(C(=O)Nc3ccccc3N)cc2)n1 | 131 | 851 | 4120 | 304 |  |  |  |  |  |  |  | 
6 | Nc1ccccc1NC(=O)c1ccc(CCNc2nccc(-c3cnc4ncccn34)n2)cc1 | 154 | 724 | 1720 | 256 |  |  |  |  |  |  |  | 
7 | Cc1nc2ccccn2c1-c1ccnc(NCc2ccc(C(=O)Nc3cc(F)ccc3N)cc2)n1 | 97 | 176 | 1000 | 270 |  |  |  |  |  |  |  | 
8 | Cc1nc2ccccn2c1-c1ccnc(NCc2ccc(C(=O)Nc3ccc(F)cc3N)cc2)n1 | 135 | 649 | 2400 | 244 |  |  |  |  |  |  |  | 
9 | Cc1nc2ccc(Br)cn2c1-c1ccnc(NCc2ccc(C(=O)Nc3ccccc3N)cc2)n1 | 125 | 501 | 2360 | 301 |  |  |  |  |  |  |  | 
10 | Nc1ccccc1NC(=O)c1ccc(CNc2nccc(-c3cnc4ccccn34)n2)cc1 | 53 | 110 | 661 | 82 | 4.98 | 81 | 72300 | 4.58 | 1.73 | 11.6 | 7 | 71900
11 | Nc1ccccc1NC(=O)c1ccc(CNc2nccc(-c3cnc4ncccn34)n2)cc1 | 35 | 427 | 856 | 183 |  |  |  |  |  |  |  | 
